{"source": "ChEMBL document CHEMBL1201862", "about": "“PubChem BioAssay data set” (2004)", "assay_in_all_cases": "NCI-60 cell line screen, 48 h", "key": {"[1]": {"system": "DLD-1"}, "[2]": {"system": "DMS-114"}, "[3]": {"system": "DMS-273"}, "[4]": {"system": "KM-20L2"}, "[5]": {"system": "LXFL 529"}, "[6]": {"system": "M19-MEL"}, "[7]": {"system": "HOP-18"}, "[8]": {"system": "RXF 631"}, "[9]": {"system": "SNB-78"}}, "note": "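Where inhibition never reached the appropriate level, the endpoint shown equals the highest concentration tested. Otherwise, values were interpolated linearly from a five-concentration, 48-hour dose response in 96-well plates. GI50: concentration for 50% inhibition of growth.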 Calls of active or inactive are those of the source. Rule as the data show it: active = GI50 up to about 1.1 µM and inactive = higher."}
{"smiles": "N#C/N=C(/NCc1ccccc1)N(Cc1ccccc1)Cc1ccccc1", "values": [{"measurement": "GI50", "setting": "[1]", "value": "> 10 µM (inactive)"}, {"measurement": "GI50", "setting": "[2]", "value": "> 10 µM (inactive)"}, {"measurement": "GI50", "setting": "[3]", "value": "> 10 µM (inactive)"}, {"measurement": "GI50", "setting": "[4]", "value": "> 10 µM (inactive)"}, {"measurement": "GI50", "setting": "[5]", "value": "> 10 µM (inactive)"}, {"measurement": "GI50", "setting": "[6]", "value": "> 10 µM (inactive)"}]}
{"smiles": "C#CC1(O)CCC2C3CCc4cc(Oc5nc(F)nc(-c6c7ccccc7c7sc8ccccc8n67)n5)ccc4C3CC[C@@]21C", "note": "(stereo partly drawn)", "values": [{"measurement": "GI50", "setting": "[1]", "value": "> 100 µM (inactive)"}, {"measurement": "GI50", "setting": "[3]", "value": "75.5 µM (inactive)"}, {"measurement": "GI50", "setting": "[4]", "value": "> 100 µM (inactive)"}, {"measurement": "GI50", "setting": "[5]", "value": "> 100 µM (inactive)"}, {"measurement": "GI50", "setting": "[6]", "value": "> 100 µM (inactive)"}]}
{"smiles": "C/N=N/N(C)C(=O)NC", "values": [{"measurement": "GI50", "setting": "[1]", "value": "> 100 µM (inactive)"}, {"measurement": "GI50", "setting": "[2]", "value": "> 100 µM (inactive)"}, {"measurement": "GI50", "setting": "[7]", "value": "> 100 µM (inactive)"}, {"measurement": "GI50", "setting": "[4]", "value": "> 100 µM (inactive)"}, {"measurement": "GI50", "setting": "[5]", "value": "> 100 µM (inactive)"}, {"measurement": "GI50", "setting": "[6]", "value": "> 100 µM (inactive)"}]}
{"smiles": "NC(=O)COc1c(Br)cc(Br)cc1Br", "values": [{"measurement": "GI50", "setting": "[1]", "value": "> 100 µM (inactive)"}, {"measurement": "GI50", "setting": "[2]", "value": "> 100 µM (inactive)"}, {"measurement": "GI50", "setting": "[3]", "value": "> 100 µM (inactive)"}, {"measurement": "GI50", "setting": "[4]", "value": "> 100 µM (inactive)"}, {"measurement": "GI50", "setting": "[6]", "value": "> 100 µM (inactive)"}, {"measurement": "GI50", "setting": "[8]", "value": "> 100 µM (inactive)"}]}
{"smiles": "CN(C)C(=S)/N=c1\\ssc(=S)n1Cc1ccccn1", "values": [{"measurement": "GI50", "setting": "[1]", "value": "4.45 µM (inactive)"}, {"measurement": "GI50", "setting": "[3]", "value": "1.64 µM (inactive)"}, {"measurement": "GI50", "setting": "[7]", "value": "9.38 µM (inactive)"}, {"measurement": "GI50", "setting": "[4]", "value": "1.94 µM (inactive)"}, {"measurement": "GI50", "setting": "[5]", "value": "3.9 µM (inactive)"}, {"measurement": "GI50", "setting": "[6]", "value": "2.36 µM (inactive)"}, {"measurement": "GI50", "setting": "[8]", "value": "3.7 µM (inactive)"}, {"measurement": "GI50", "setting": "[9]", "value": "30.2 µM (inactive)"}]}
{"smiles": "O=C1CN(C(=O)c2ccccc2)Cc2[nH]c3ccccc3c21", "values": [{"measurement": "GI50", "setting": "[1]", "value": "> 100 µM (inactive)"}, {"measurement": "GI50", "setting": "[2]", "value": "> 100 µM (inactive)"}, {"measurement": "GI50", "setting": "[3]", "value": "> 100 µM (inactive)"}, {"measurement": "GI50", "setting": "[7]", "value": "> 100 µM (inactive)"}, {"measurement": "GI50", "setting": "[4]", "value": "> 100 µM (inactive)"}, {"measurement": "GI50", "setting": "[5]", "value": "> 100 µM (inactive)"}, {"measurement": "GI50", "setting": "[6]", "value": "> 100 µM (inactive)"}, {"measurement": "GI50", "setting": "[8]", "value": "> 100 µM (inactive)"}, {"measurement": "GI50", "setting": "[9]", "value": "> 100 µM (inactive)"}]}
{"smiles": "c1cncc(C2N3CCCCC3[C@@H]3c4[nH]c5ccccc5c4CCN23)c1", "note": "(stereo partly drawn)", "values": [{"measurement": "GI50", "setting": "[1]", "value": "> 100 µM (inactive)"}, {"measurement": "GI50", "setting": "[3]", "value": "> 100 µM (inactive)"}, {"measurement": "GI50", "setting": "[7]", "value": "> 100 µM (inactive)"}, {"measurement": "GI50", "setting": "[4]", "value": "> 100 µM (inactive)"}, {"measurement": "GI50", "setting": "[5]", "value": "> 100 µM (inactive)"}, {"measurement": "GI50", "setting": "[6]", "value": "> 100 µM (inactive)"}, {"measurement": "GI50", "setting": "[8]", "value": "> 100 µM (inactive)"}, {"measurement": "GI50", "setting": "[9]", "value": "87.1 µM (inactive)"}]}
{"smiles": "Cc1ccc(C(=O)N(Cc2ccccc2)Cc2ccccc2)cc1/N=N/N(C)C", "values": [{"measurement": "GI50", "setting": "[1]", "value": "21.4 µM (inactive)"}, {"measurement": "GI50", "setting": "[3]", "value": "41.8 µM (inactive)"}, {"measurement": "GI50", "setting": "[5]", "value": "6.31 µM (inactive)"}, {"measurement": "GI50", "setting": "[9]", "value": "27.2 µM (inactive)"}]}
{"smiles": "COC1=CC(=O)C2[C@H]3Cc4ccccc4[C@H]3C2(C)C1=O", "note": "(stereo partly drawn)", "values": [{"measurement": "GI50", "setting": "[1]", "value": "> 100 µM (inactive)"}, {"measurement": "GI50", "setting": "[3]", "value": "> 100 µM (inactive)"}, {"measurement": "GI50", "setting": "[4]", "value": "77.3 µM (inactive)"}, {"measurement": "GI50", "setting": "[5]", "value": "> 100 µM (inactive)"}, {"measurement": "GI50", "setting": "[6]", "value": "83.2 µM (inactive)"}, {"measurement": "GI50", "setting": "[8]", "value": "> 100 µM (inactive)"}, {"measurement": "GI50", "setting": "[9]", "value": "78 µM (inactive)"}]}
{"smiles": "COC(=O)[C@@H]1C[C@H](c2ccc(OC)c(OC)c2)OC1=O.COC(=O)[C@H]1C[C@H](c2ccc(OC)c(OC)c2)OC1=O", "values": [{"measurement": "GI50", "setting": "[1]", "value": "> 100 µM (inactive)"}, {"measurement": "GI50", "setting": "[2]", "value": "> 100 µM (inactive)"}, {"measurement": "GI50", "setting": "[3]", "value": "> 100 µM (inactive)"}, {"measurement": "GI50", "setting": "[4]", "value": "> 100 µM (inactive)"}, {"measurement": "GI50", "setting": "[5]", "value": "> 100 µM (inactive)"}, {"measurement": "GI50", "setting": "[6]", "value": "> 100 µM (inactive)"}, {"measurement": "GI50", "setting": "[8]", "value": "> 100 µM (inactive)"}, {"measurement": "GI50", "setting": "[9]", "value": "> 100 µM (inactive)"}]}
{"smiles": "COc1cc(C(=O)N[C@H]2CCc3cc(OC)c(OC)c(OC)c3-c3ccc(SC)c(=O)cc32)cc(OC)c1OC", "values": [{"measurement": "GI50", "setting": "[1]", "value": "0.00731 µM (active)"}, {"measurement": "GI50", "setting": "[2]", "value": "0.00775 µM (active)"}, {"measurement": "GI50", "setting": "[3]", "value": "0.00298 µM (active)"}, {"measurement": "GI50", "setting": "[4]", "value": "0.00475 µM (active)"}, {"measurement": "GI50", "setting": "[5]", "value": "0.00811 µM (active)"}, {"measurement": "GI50", "setting": "[6]", "value": "0.0225 µM (active)"}, {"measurement": "GI50", "setting": "[8]", "value": "0.0338 µM (active)"}, {"measurement": "GI50", "setting": "[9]", "value": "0.0025 µM (active)"}]}
{"smiles": "CN(C)CCNc1ccc2nnn3c4ccc(Cl)cc4c(=O)c1c23", "values": [{"measurement": "GI50", "setting": "[1]", "value": "3.21 µM (inactive)"}, {"measurement": "GI50", "setting": "[3]", "value": "2.82 µM (inactive)"}, {"measurement": "GI50", "setting": "[4]", "value": "2.86 µM (inactive)"}, {"measurement": "GI50", "setting": "[5]", "value": "3.23 µM (inactive)"}, {"measurement": "GI50", "setting": "[6]", "value": "3.51 µM (inactive)"}, {"measurement": "GI50", "setting": "[8]", "value": "2.37 µM (inactive)"}, {"measurement": "GI50", "setting": "[9]", "value": "11.9 µM (inactive)"}]}
{"smiles": "CC(NC(=O)/C(C#N)=C/c1ccc2[nH]ccc2c1)c1ccccc1", "note": "(stereo not drawn)", "values": [{"measurement": "GI50", "setting": "[1]", "value": "19.1 µM (inactive)"}, {"measurement": "GI50", "setting": "[2]", "value": "22.3 µM (inactive)"}, {"measurement": "GI50", "setting": "[3]", "value": "23.5 µM (inactive)"}, {"measurement": "GI50", "setting": "[7]", "value": "24.3 µM (inactive)"}, {"measurement": "GI50", "setting": "[4]", "value": "18.6 µM (inactive)"}, {"measurement": "GI50", "setting": "[5]", "value": "19.5 µM (inactive)"}, {"measurement": "GI50", "setting": "[9]", "value": "38.7 µM (inactive)"}]}
{"smiles": "CCCOc1ccc(/C=C\\c2cc(OC)c(OC)c(OC)c2)cc1", "values": [{"measurement": "GI50", "setting": "[1]", "value": "87.7 µM (inactive)"}, {"measurement": "GI50", "setting": "[2]", "value": "34.4 µM (inactive)"}, {"measurement": "GI50", "setting": "[3]", "value": "36.3 µM (inactive)"}, {"measurement": "GI50", "setting": "[7]", "value": "> 100 µM (inactive)"}, {"measurement": "GI50", "setting": "[4]", "value": "33 µM (inactive)"}, {"measurement": "GI50", "setting": "[5]", "value": "52.8 µM (inactive)"}, {"measurement": "GI50", "setting": "[6]", "value": "67.8 µM (inactive)"}, {"measurement": "GI50", "setting": "[8]", "value": "37.1 µM (inactive)"}, {"measurement": "GI50", "setting": "[9]", "value": "> 100 µM (inactive)"}]}
